Columns and labels:
[1] = test system: gintonin-induced CaCC currents; assay: Effects of PLC inhibitor, IP3 receptor antagonist or Ca2+ chelator on crude gintonin-mediated CaCC activation in Xenopus oocytes; type: cell-based, Xenopus laevis; settings: for crude gintonin-induced CaCC currents, % of the control: in presence of the PLC inhibitor or inactive analog
Experimental: Two-electrode voltage-clamp recordings were obtained from individual oocytes placed in a small Plexiglas net chamber (0.5 ml). Electrophysiological experiments were performed at room temperature using microelectrodes filled with 3 M KCl (resistance of 0.2-0.7 MΩ) and an Oocyte Clamp amplifier (OC-725C; Warner Instrument, Hamden, Conn.), followed by recording CaCC at −80 mV holding potential.
For this, the effect of the IP3 receptor antagonist, membrane permeable 2-aminoethxydiphenyl borate (2-APB), on gintonin-induced CaCC activation was examined.

[2] = test system: gintonin-mediated elevation of [Ca^2+]i in mouse EAT cells; assay: Effects of active or inactive PLC inhibitors on gintonin-mediated [Ca2+]i elevation in mouse EAT cells; type: cell-based; settings: for effect on the action of gintonin on [Ca^2+]i: mouse EAT cells, irrespective of the presence of extracellular Ca^2+; for effect on gintonin (100 ng/mL)-mediated elevation of [Ca^2+]i: pretreatment 10 μM, Ca^2+ buffer (1.5 mM Ca^2+) and Ca^2+ free buffer (0.2 mM EGTA), n=4-5/group
Experimental: Data are represented as means ±SEM (n=4-5/group).
[Ca^2+]i was estimated in fura 2-loaded cells in suspension using an RF-5300PC intracellular ion measurement system (Shimadzu Corporation, Japan). The fura 2-AM loaded cells were diluted with an experimental medium to a final density of 2˜4×10^6 cells/mL and transferred to polystyrene cuvettes (Elkay Ultra-VU). The cells were stirred using Teflon-coated magnets, and the cuvette housing was thermostatically controlled at 37° C. The excitation wavelengths were alternated between 340 and 380 nm under computer control. Emission was detected at 510 nm. Excitation and emission slit widths were 5 nm. Background correction was performed as described by Jorgensen et al. Digitonin and EGTA were used as concentration adjustment reagents to make a condition in which fura 2 completely combines with and disassociates from Ca^2+.

Row | Structure (SMILES) | inward CaCC currents induced by gintonin after addition of 2-APB ([1]; P<0.01 vs control current) | effect on gintonin-induced inward CaCC currents ([1]; addition of 2-APB) | effect on gintonin-mediated CaCC activation ([1]; 10 μM final) | crude gintonin-induced CaCC currents, % of the control [1] | effect on the action of gintonin on [Ca^2+]i [2] | effect on gintonin (100 ng/mL)-mediated elevation of [Ca^2+]i [2]
1 | NCCOB(c1ccccc1)c1ccccc1 [2-APB, 2-aminoethxydiphenyl borate] | 0.03±0.01 μA | almost completely abrogated |  |  |  | 
2 | CC(=O)OCOC(=O)CN(CC(=O)OCOC(C)=O)c1ccccc1OCCOc1ccccc1N(CC(=O)OCOC(C)=O)CC(=O)OCOC(C)=O [BAPTA-AM, 1,2-bis-(2-aminophenoxy)ethane-N,N,N′,N′-tetraacetic acid acetoxymethyl ester] |  |  | almost extinguished |  |  | 
3 | COc1ccc2c(c1)CC[C@@H]1[C@@H]2CC[C@]2(C)[C@@H](NCCCCCCN3C(=O)C=CC3=O)CC[C@@H]12 [U-73122] |  |  |  | 3.9±0.3% | almost abrogate | blocked
4 | COc1ccc2c(c1)CC[C@@H]1[C@@H]2CC[C@]2(C)[C@@H](NCCCCCCN3C(=O)CCC3=O)CC[C@@H]12 [U-73343] |  |  |  | 97.2±0.2% | not | not
